Consider seven compounds from patent publication US7745465B2, “Method of enhancing cellular production of molecular chaperone, hydroxylamine derivatives useful for enhancing the chaperone production and the preparation thereof” (CytRx Corporation, priority 1995, dated 2010).

Assay [1] deals with Hsp72. Description: Heat stress induced hsp72 expression in rat spleen explant. It is filed as cell-based. The note with it: 10^−5 M, 15 min. before 43° C. 30 min. On the procedure:
These experiments were performed on rat spleen and testicular tissue explants applying heat stress after treatment with the experimental compounds. Experiments on spleen suspension were carried out as follows.
Spleens of CFY rats weighing 200 g were removed aseptically, and were homogenized in 10% fetal bovine serum containing MEM culture medium. The concentration of the cell suspension was adjusted to 50-100 mg/5 ml.
Five ml cell suspension was given into each of the culture dishes of 6 cm of diameter and the explants were incubated for one hour in a 5% CO2 containing humidified air at 37° C. then cultures were treated with the 10^−5 M concentration of the test compounds. After further 15 min. incubation at 37° C. the cultures were exposed to heat shock at 43° C. for 30 min. in an incubator. The amount of the induced hsp72 was measured after a further 6 hours incubation at 37° C.

Assay [2] concerns Hsp72. Description: Heat stress induced hsp72 expression in rat testicular explant. The class given is cell-based. The note with it: 10^−5 M, 15 min. before 43° C. 30 min. The method, then:
Testis of CFY rats weighing of 200 g were removed in sterile conditions and the released testicular tubuli were suspended in 10% fetal bovine serum containing MEM culture medium in that way that five ml suspension contained 50-100 mg tissue. The explants were incubated in 5% CO2 containing humidified air at 37° C. for one hour, then the cultures were treated with 10^−5 M concentration of the tested compounds. After a further incubation for 15 min. at 37° C., explants were exposed to heat shock at 43° C. for 30 min. The amount of the induced hsp72 was measured after a further 6 hours incubation at 37° C.

The test system of assay [3] is HSP72. Description: Heat stress induced HSP72 production in 3T3 cells. The note with it: 10^−5 M. It is filed as cell-based, mouse. An outline of the steps:
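Mouse 3T3 fibroblasts in MEM monolayer were heat-stressed 30 min at 43° C, with test compounds at 10^−5 M given 15 min before or 100 min after stress. HSP72 detected by immunoblot with SPA 810 primary and HRP secondary antibodies, quantified by densitometry.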

For assay [4], the system named is Rats with genetic hypertension. Description: Morphological examination of the thoracic aorta of rats with genetic hypertension. It is filed as in vivo, rat. The note with it: daily oral treatment (20 mg/kg 8 days or 5 mg/kg 20 days). On the procedure:
Rats with genetic hypertension were divided into four groups of four. The groups were treated daily, orally, the first group with physiological saline, the second group with N-[2-hydroxy-3-(1-piperidinyl)]-propoxy-3-pyridine-carboximidoyl-chloride maleate (20 mg/kg) for 8 days, the third group with N-[2-hydroxy-3-(1-piperidinyl)-propoxy]-benzimidoyl-chloride monohydrochloride (5 mg/kg) for 20 days and the fourth group with N-[2-hydroxy-3-(1-piperidinyl)-propoxy]-2-thiophenecarboximidoyl-chloride monohydrochloride (5 mg/kg) for 20 days. Animals were sacrificed, aortas were isolated, snap frozen in liquid nitrogen and were stored at −70° C. till they were used.
The examination was performed according to published methods (Br. J. of Pharmacol., 1995; 115, […]). A 1 mm^2 area of the thoracic aorta was excised and fixed in 2.5% glutaral-dehyde at room temperature. Post fixation was performed in 1% osmium-tetroxide for one hour. The tissue was dehydrated in ethanol and was embedded in Durcupan ACM. Pictures were taken by a Hitachi 7100 electronmicroscope and were evaluated qualitatively.

For the next assay, the system named is Male Sprague-Dawley rats. Description: Protection against cardiac ischaemia: survival after 5 minutes coronary occlusion and reperfusion. The class given is in vivo, rat. The note with it: i.v. 1 mg/kgbw, 5 min. before the occlusion; non-treated control 10. On the procedure:
Male Sprague-Dawley rats (380-450 g b.w.) were anaesthetized with sodiumpentobarbital (Nembutal 60 mg/kg body weight, i.p.) and artificially ventilated with room air (2 ml/100 g; 54 stroke/minutes) via tracheotomy. The right carotid artery was catheterized and connected to a pressure transducer (BPR-01, Stoelting) for the measurement of systemic arterial blood pressure (BP) by means of a preamplifier (Hg-02, Experimetria). Hydroxylamine derivatives disclosed in Example 5 were administered via the venous cannule to jugular vein (i.v.) and orally (p.o.). Heart rate (HR) was measured by a cardiotachometer (HR-01, Experimetria). The electrocardiogram (ECG standard lead II) was recorded on a devices recorder (MR-12, Medicor) by means of subcutaneous steel needles electrodes. The chest was opened by a left thoracotomy and the heart was exteriorized by a gentle pressure on the right side of the rib cage. A 4-0 silk suture was quickly placed under the main left coronary artery as described by Selye et al. (1960). The heart was carefully replaced in the chest and the animal left to recover. Rectal temperature was monitored and kept constant at 37 C. The experimental protocol was initiated with a 15 minute stabilization period during which the observation of a sustained blood pressure less than 70 mmHg and or the occurrence of anhythmia led to exclusion. Myocardial ischemia was induced with coronary occlusion for 5 minutes and reperfusion allowed for 10 minutes.
During the entire experiment BP, HR and ECG were continuously registered on a multiscriptor (R61-6CH, Medicor). Hydroxylamine derivatives, the tautomeric forms of which are represented by structures (I) and (II), were administered 5 to 60 minutes before the occlusion after i.v. and p.o. treatment, respectively. […]
The mean duration of ventricular tachycardia (VT) and/or ventricular fibrillation (VF) during the first 3 minutes of reperfusion was analyzed by one-way analysis of variance. The incidence of VF was analyzed using a chi-square test. […] The haemodynamic variables were analyzed using Student's “t”-test. The critical level of significance was set at p<0.05. All results were expressed as a means±S.E.M. Drugs were administered i.v. in a dose of 1 mg/kgbw 5 min. before the occlusion.
The hydroxylamine derivatives that are found to be particularly advantageous for protecting an animal against ischemic/reperfusion injury are listed below. Survival (%) indicates the percent of animals survived the effects of 5 minutes coronary occlusion.

Assay [5] deals with hsp72. Description: HgCl2 stress induced hsp72 level in HeLa cells. It is filed as cell-based, human. The note with it: 10^−5 M, 0.5 μg/ml HgCl2, 6 hours. On the procedure:
From the applied cells the 3T3 and L-929 mouse fibroblasts were cultured in MEM medium and grew in monolayer, the U-937 human leukemia cells were maintained in RPMI-1640 medium, in suspension culture, while the HeLa human epithelial cells were cultured in DMEM medium and in monolayer form. Cell cultures were maintained as described in example 6.2 (a) with the difference that cells were cultured in the above mentioned culture mediums.
Experiments were carried out applying stress before and after the drug treatment. Stress was provoked by heat, by chemical agent, HgCl2 treatment. The test compounds were applied in the treatments at the 10^−5 M concentration.
These experiments were performed on HeLa, human epithelial and U-937, human leukemia cells using HgCl2 to induce stress response. Drug treatment was carried out before cells were exposed to the stress. Test cultures were prepared and treatments were performed as in the experiments with the 3T3 cells. After the drug treatment cells were incubated at 37° C. for 15 min. than all the cultures except two (non stressed control) were exposed to 0.5 μg/ml concentration of HgCl2 and the incubation was followed. The induced amount of hsp72 was measured 6 hours after the exposure to stress.

Setting [6] is: treatment 15 min. before 30 min. 43° C. heat stress.
Where [7] appears, read: treatment 100 min. after 30 min. 43° C. heat stress.

Regarding `CCCCCCCNC(=O)NOCC(O)CN1CCCCC1` (stereo not drawn) [Example 55, N-[2-hydroxy-3-(1-piperidinyl)propoxy]-N′-heptyl-urea], the “Level of hsp72 relative to the stress exposed control” value is “+++ (>100%)” with Hsp72 [1] and “+ +” in the assay on Hsp72 [2].

With `O=C(NOCC(O)CN1CCCCC1)Nc1cccc(Cl)c1` (stereo not drawn) [Example 59, N-(3-chlorophenyl)-N′-[2-hydroxy-3-(1-piperidinyl)propoxy]-urea], in the assay with Hsp72 [1], the “Level of hsp72 relative to the stress exposed control” value is given as “+++ (>100%)”. For the same compound, the “HSP72 level relative to the stress exposed control” value in the assay on HSP72 [3] (setting [6]) is reported as “+++ (>100%)”.

Turning to `Cl.OC(CON=C(Cl)c1ccccc1)CN1CCCCC1` (stereo not drawn) [N-[2-hydroxy-3-(1-piperidinyl)-propoxy]-benzimidoyl-chloride monohydrochloride], the “regeneration of the cells of aorta” value in assay [4] was “facilitated the regeneration of the cells of aorta”. Further, the “Survival (%)” value with Male Sprague-Dawley rats amounted to 100%. Besides, the “increase of the stress induced hsp72 level” value in the assay on hsp72 [5] is listed as “more than 20%”. Moreover, the “HSP72 level relative to the stress exposed control” value in the assay on HSP72 [3] (setting [6]) is “+ (21-50%)”. Besides, the “Level of hsp72 relative to the stress exposed control” value in the assay with Hsp72 [2] is “+ + +”.

Regarding `CC(C)(C)NCC(O)CONC(=O)c1cccc(C(F)(F)F)c1` (stereo not drawn) [Example 65], the “Level of hsp72 relative to the stress exposed control” value with Hsp72 [1] is given as “+ (21-50%)”; in the assay with Hsp72 [2], 0 (0 indicates that the treatment altered by ±20% the stress induced hsp72 level in the cells). Also, the “Survival (%)” value in the assay on Male Sprague-Dawley rats was 78%.

Take `c1cncc(C2=NOCC(CN3CCCCC3)N2)c1` (stereo not drawn) [Example 64, 5,6-Dihydro-5-(1-piperidinyl)methyl-3-(3-pyridyl)-4H-1,2,4-oxadiazine]: the entries for the “Level of hsp72 relative to the stress exposed control” value in the assay on Hsp72 [1] and in the assay with Hsp72 [2] were 0 (0 indicates that the treatment altered by ±20% the stress induced hsp72 level in the cells) and “+ +”, respectively. In addition, the “Survival (%)” value in the assay on Male Sprague-Dawley rats is 100%. Moreover, the “HSP72 level relative to the stress exposed control” value in the assay with HSP72 [3] (setting [6]) was “+++ (>100%)”; in the assay on HSP72 [3] (setting [7]) it was 0 (0 indicates that the treatment altered by ±20% the stress induced hsp72 level in the cells).

For the compound `Cl.OC(CON=C(Cl)c1cccs1)CN1CCCCC1` (stereo not drawn) [Example 1, N-[2-hydroxy-3-(1-piperidinyl)propoxyl]-2-thiophenecarboximidoyl chloride monohydrochloride], in assay [4], the “regeneration of the cells of aorta” value was “facilitated the regeneration of the cells of aorta”. Also, the “Survival (%)” value with Male Sprague-Dawley rats was 100%.

Regarding `Cl.O=[N+]([O-])c1cccc(C(Cl)=NOCCCN2CCCCC2)c1` [Example 79, O-(3-piperidinopropyl)-3-nitro-benzhydroximyl chloride hydrochloride], in the assay with Male Sprague-Dawley rats, the “Survival (%)” value is 100%. Also, the “increase of the stress induced hsp72 level” value with hsp72 [5] is recorded as “more than 50%”. The “HSP72 level relative to the stress exposed control” value with HSP72 [3] (setting [6]) is reported as “+++ (>100%)”; with HSP72 [3] (setting [7]), “+ (21-50%)”. The “Level of hsp72 relative to the stress exposed control” value in the assay with Hsp72 [2] was “+ +”.
